What was measured:
[1] = tested on: porcine coronary artery rings; test: Evaluation of vascular function (bradykinin-induced relaxation of coronary artery rings, organ chamber); conditions: for bradykinin concentration at which vasorelaxation was significantly increased compared to nanoplastics alone: nanoplastics + 1 μM test drug
Method: Vascular endothelial cells play an important role in maintaining vascular homeostasis, but senescence is known to cause vascular dysfunction. Therefore, vascular reactivity of vascular endothelial cells was evaluated to see whether enavogliflozin prevents vascular dysfunction caused by the exposure to nanoplastics. In addition, the evaluation was performed together with the competing material, empagliflozin, and thus their effects were compared.
Specifically, the left anterior descending coronary artery of the porcine heart was resected into rings with a size of 2 to 3 mm. An experiment was conducted with a control, a group treated with 10 µg/mL of nanoplastics, groups treated with […] of nanoplastics+different concentrations of enavogliflozin (0.01, 0.1, and 1 μM), and a group treated with 10 µg/mL of nanoplastics+[…] empagliflozin. The coronary artery rings were placed in Crabb's solution at 37° C. in an organ chamber (95% 02, 5% CO2) to measure changes in isometric tension. The viability of each coronary ring was confirmed by constant […] loading at 5 g for 90 minutes and repeated contractions with up to 80 mM KCl. After washing for 30 minutes, the coronary artery rings were constricted to approximately 80% (maximum contraction) using the thromboxane mimetic U46619 and treated with bradykinin. The relaxation rate of blood vessels in relation to the concentration of bradykinin was then calculated. The results are shown in the graph of FIG. 10.
For statistical data analysis, Prism 5.03 software (GraphPad Software Inc., San Diego, CA, USA) was used. The test results are expressed as the mean±standard error of the mean (SEM). The statistical method was to conduct a two-way ANOVA to verify the difference between groups, and a post hoc test for each type was performed using the verification method with the Bonferroni function. The significance level was set to be p<0.05.
Bradykinin is a biomaterial, and when a bradykinin receptor is activated, endothelial nitric oxide synthase (eNOS) is activated, releasing nitric oxide (NO) and relaxing blood vessels.

[2] = Dissolution test (Korean Pharmacopoeia method 2, paddle method); type: physicochemical
Method: Since the dissolution rate of the active ingredient in the pharmaceutical composition affects the maximum blood concentration (Cmax) and the blood concentration-area under the blood concentration-time curve (AUC) when administering the drug, to achieve appropriate Cmax and AUC, it is important to adjust the dissolution rate of the pharmaceutical composition. Since enavogliflozin has a Tmax of 1 to 2 hours, the drug absorption rate in the stomach is considered important. The above dissolution rate was measured under the condition of the dissolved solution 1.2 in accordance with the dissolution test method 2 of the Korean Pharmacopoeia (paddle method). For specific conditions, refer to the following experimental examples.

[3] = tested on: Nox2 and p22phox, membrane catalytic subunits of NADPH oxidase; test: Expression of oxidative stress-associated markers (western blot); type: cell-based, porcine; conditions: nanoplastics + enavogliflozin 0.01, 0.1 and 1 μM, 24 hours
Method: In the porcine coronary artery endothelial cells, it is known that NADPH oxidase produces a peroxide in endothelial cells to cause cellular senescence and endothelial dysfunction. Oxidative stress in cells was assessed by measuring the expression of Nox2 and p22phox, which are membrane catalytic subunits of the NAPDH oxidase.
(§1) Specifically, the cells were seeded at 1×10^5 cells/well in a 6-well plate. The cells were incubated in DMEM containing 10% FBS, penicillin (100 U/mL), streptomycin (100 U/mL), and fungizone ([…]) in a CO2 incubator at 37° C. The cells were divided into a control, a group treated with 10 µg/mL of nanoplastics, and groups treated with nanoplastics+different concentrations of enavogliflozin (0.01, 0.1, and 1 μM), treated with a sample, and then incubated for 24 hours.
To lyse the porcine coronary artery endothelial cells, 1×RIPA buffer was added to each well and the cells were lysed for 10 minutes. The cells were scraped with a scraper and centrifuged at 14,000 rpm and 4° C. for 15 minutes. Protein quantification of the obtained cell lysate was measured using Bio-Rad DC protein reagent. Analysis was performed by equally loading […] of protein. […]
(§2) For statistical data analysis, Prism 5.03 software (GraphPad Software Inc., San Diego, CA, USA) was used. The test results are expressed as the mean±standard error of the mean (SEM). […]

[4] = tested on: eNOS; test: Measurement of expression of eNOS (western blot); type: cell-based, porcine; conditions: nanoplastics + enavogliflozin 0.01, 0.1 and 1 μM, 24 hours
Method: Reduced eNOS expression is a common feature in endothelial senescence, and is known to cause endothelial dysfunction. Here, the expression of eNOS was measured, thereby confirming that enavogliflozin improves the damage to the endothelial function caused by the exposure to nanoplastics.
Specifically, the cells were seeded at 1×10^5 cells/well in a 6-well plate. The cells were cultured in DMEM containing 10% FBS, penicillin (100 U/mL), streptomycin (100 U/mL), and fungizone ([…]) in a CO2 incubator at 37° C. […]
To lyse the porcine coronary artery endothelial cells, 1×RIPA buffer was added to each well and the cells were lysed for 10 minutes. […] Protein quantification of the obtained cell lysate was measured using Bio-Rad DC protein reagent. […]
After eNOS (1:1,000) and 3-actin (1:1,000) as primary antibodies were reacted at 4° C. for 24 hours, the resulting product was washed 3 to 5 times with 1×TBS-T buffer for 10 minutes. […] Protein bands were treated with an ECL solution and detected using Amersham imager 680.
as §2

[5] = Pharmacokinetics (Tmax); type: in vivo; conditions: blood, oral
[6] = tested on: reactive oxygen species (ROS); test: Evaluation of oxidative stress (ROS, DCF-DA and DHE fluorescence); type: cell-based, porcine; conditions: 10 µg/mL nanoplastics + enavogliflozin 0.01, 0.1 and 1 μM
Method: Oxidative stress was measured using dihydroethidium (DHE) and 2′,7′-dichlorodihydrofluorescein diacetate (DCF-DA).
Specifically, porcine coronary artery endothelial cells were seeded at 1×10^4 cells/well in a black 96-well plate. The cells were divided into a control, a group treated with 10 µg/mL of nanoplastics, and groups treated with 10 µg/mL of the nanoparticles+different concentrations of enavogliflozin (0.01, 0.1, and 1 μM) to perform the experiment. The cells were incubated in DMEM containing 10% FBS, penicillin (100 U/mL), streptomycin (100 U/mL), and fungizone ([…]) in a CO2 incubator at 37° C. After 24-hour incubation, the amount of reactive oxygen species (ROS) produced was measured by fluorescent absorbance (excitation/emission 485/535 nm).
To measure the ROS produced also in the coronary artery rings, the coronary artery rings were treated with samples for each group, and immersed in a frame containing an OCT solution (Leica Biosystems) and frozen in liquid nitrogen. The frozen result was cut into […] sections using a cryotome, and the sections were stained with DHE (10 μM) and incubated at 37° C. for 45 minutes, washed with PBS, and then observed using a fluorescence microscope.
as §2

[7] = tested on: porcine coronary artery rings and coronary artery-derived endothelial cells; test: Evaluation of β-galactosidase (SA-β-Gal) activity (X-gal staining); type: cell-based; conditions: 10 µg/mL nanoplastics + enavogliflozin 0.01, 0.1 and 1 μM, 24 hours, vs nanoplastics
Method: Senescence-related β-galactosidase (SA-β-Gal) activity is the characteristic of senescent cells, and used as a histochemical marker for senescence.
Specifically, the porcine coronary artery was cut into a size of 2 to 3 mm to form coronary artery rings. Next, the coronary artery rings were divided into a control, a group treated with 10 µg/mL of nanoplastics, and groups treated with 10 µg/mL of the nanoparticles+different concentrations of enavogliflozin (0.01, 0.1, and 1 μM) to perform the experiment. After 24-hour culture, the cells were fixed with 4% formaldehyde, and stained with an X-gal dye to allow a reaction for one day.
Subsequently, the coronary artery rings were immersed in an optimal cutting temperature (OCT) solution (Leica Biosystems) and cut to 10 μm sections using a cryotome at −25° C. and observed under a microscope. The results are shown in the photograph in FIG. 5. In addition, the evaluation of β-galactosidase activity in endothelial cells derived from the porcine coronary artery is as follows. […]
as §2

[8] = tested on: porcine coronary artery endothelial cells; test: Evaluation of cell proliferation effect (MTS); type: cell-based; conditions: nanoplastics + enavogliflozin 0.01, 0.1 and 1 μM, 24 hours, vs nanoplastics
Method: Cell cycle arrest is one of the main features of cellular senescence. It was confirmed whether enavogliflozin could improve decreased proliferation of endothelial cells, that is, cellular senescence, caused by the exposure to nanoplastics.
Specifically, after extracting the porcine coronary artery, the porcine coronary artery was treated with collagenase for 20 minutes and centrifuged to obtain coronary artery endothelial cells. The cells were seeded at 1×10^4 cells/well in a 96-well plate. The cells were incubated in DMEM containing 10% FBS, penicillin (100 U/mL), streptomycin (100 U/mL), and fungizone ([…]) in a 5% CO2 incubator at 37° C. The cells were divided into a control, a group treated with 10 µg/mL of nanoplastics, and groups treated with the nanoparticles+different concentrations of enavogliflozin (0.01, 0.1, and 1 μM) to perform the experiment, and the cell proliferation effect was measured using a CellTiter 96 Aqueous One Solution Cell Proliferation Assay (Promega Corporation, USA) kit. Samples were treated and incubated for 24 hours, and treated with an MTS tetrazolium solution (20 μL/well) to allow a reaction for 3 hours, and then absorbance was measured at 490 nm using an Enspire Multilabel Reader (Perkin Elmer Ltd.).
For statistical data analysis, Prism 5.03 software (GraphPad Software Inc., San Diego, CA, USA) was used. […]

[9] = tested on: cellular senescence markers p53 and p21; test: Expression of endothelial cell senescence markers (western blot); type: cell-based, porcine; conditions: nanoplastics + enavogliflozin 0.01, 0.1 and 1 μM, 24 hours
Method: The expression of cellular senescence markers p53 and p21 was confirmed in porcine coronary artery endothelial cells.
as §1, with “were cultured” for “were incubated”, “10 μg/mL” for “10 µg/mL”, “with the nanoparticles+different” for “with nanoplastics+different”, “μM), and then the cells were” for “μM),”, “with samples” for “with a sample,”, “and” for “and then”
To lyse the porcine coronary artery endothelial cells, 1×RIPA buffer was added to each well and the cells were lysed for 10 minutes. The cells were scraped with a scraper and centrifuged at 14,000 rpm and 4° C. for 15 minutes. Protein quantification of the obtained cell lysate was measured using Bio-Rad DC protein reagent. Analysis was performed by equally loading 15 g of protein.
After reacting with p53 (1:1,000), p21 (1:1,000), and β-actin (1:1,000) as primary antibodies at 4° C. for 24 hours, the cells were washed 3 to 5 times with 1×TBS-T buffer for 10 minutes. […]
as §2

Row | Compound | bradykinin concentration at which vasorelaxation was significantly increased compared to nanoplastics alone [1] | 30-minute dissolution rate ([2]; average particle size of enavogliflozin) | 5-minute dissolution rate ([2]; average particle size of enavogliflozin greater than 15 m) | expression of Nox2 [3] | expression of p22phox [3] | eNOS expression [4] | Tmax [5] | fluorescence intensity of DCF-DA (ROS production) [6] | fluorescence intensity of DHE (ROS production) [6] | β-galactosidase (SA-β-Gal) activity [7] | cell proliferation [8] | bradykinin-induced vasorelaxation ([1]; 10 µg/mL nanoplastics + enavogliflozin 0.01, 0.1 and 1 μM, vs nanoplastics alone) | expression of p21 protein [9] | expression of p53 protein [9]
1 | OC[C@H]1O[C@@H](c2ccc(Cl)c(Cc3ccc(O[C@H]4CCOC4)cc3)c2)[C@H](O)[C@@H](O)[C@@H]1O [empagliflozin, reference compound] | ≥ 30 nM | – | – | – | – | – | – | – | – | – | – | – | – | –
2 | OC[C@H]1O[C@@H](c2cc(Cc3ccc(C4CC4)cc3)c(Cl)c3c2CCO3)[C@H](O)[C@@H](O)[C@@H]1O [enavogliflozin] | ≥ 0.3 nM | less than 80% | less than 40 % of the total content of enavogliflozin | significantly decreased in a concentration-dependent manner | significantly decreased in a concentration-dependent manner | significantly increase | 1 to 2 h | significantly decreased | significantly decreased | significantly reduced | improved | significantly increased | significantly decreased in a concentration-dependent manner | significantly decreased in a concentration-dependent manner

Reference: patent US20260097060A1, “PHARMACEUTICAL COMPOSITION COMPRISING ENAVOGLIFLOZIN FOR PREVENTING OR TREATING CARDIOVASCULAR AGING DISEASES” (DAEWOONG PHARMACEUTICAL CO., LTD., priority 2022, published 2026)
